Experimental data published in PubChem BioAssay AID1671247.

Molecular target: Casein kinase I isoform gamma-2 (Homo sapiens) (UniProt P78368)
Test: PubChem AID 1671247
Conditions: Z'-LYTE FRET kinase activity assay

Chain of Casein kinase I isoform gamma-2 (Homo sapiens) (P78368 whole entry, looked up, canonical isoform): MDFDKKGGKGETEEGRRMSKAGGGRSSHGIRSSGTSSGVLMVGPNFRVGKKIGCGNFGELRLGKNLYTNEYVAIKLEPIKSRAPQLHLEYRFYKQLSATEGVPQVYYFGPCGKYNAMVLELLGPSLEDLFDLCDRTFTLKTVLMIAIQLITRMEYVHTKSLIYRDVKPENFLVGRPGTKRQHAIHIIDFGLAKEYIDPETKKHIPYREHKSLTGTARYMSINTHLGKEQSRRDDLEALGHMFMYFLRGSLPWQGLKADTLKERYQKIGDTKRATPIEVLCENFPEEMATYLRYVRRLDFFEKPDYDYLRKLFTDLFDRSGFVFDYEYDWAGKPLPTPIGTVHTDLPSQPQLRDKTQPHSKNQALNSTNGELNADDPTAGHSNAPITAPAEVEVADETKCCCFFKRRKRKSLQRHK

## Brc1c(Br)c(Br)c2n[nH]nc2c1Br
  IC50: 26.5 µM
